Series [1] in a line: C-13 NMR stability of the formaldehyde/sodium bisulfite/N,N-dimethylamine adduct in aqueous solution. The series is classed as physicochemical. The following applies: room temperature; for Conversion of N,N-dimethyl adduct back to formaldehyde bisulfite adduct: 18 days. Here is the method: In a small vial, 137 mg of formaldehyde sodium bisulfite (CAS 870-72-4) was combined with 10 mL of high purity water and 200 mg of N,N-dimethylamine and stirred at room temperature to mix. The resulting mixture was stored at room temperature.
Aliquots of the mixture was analysed by C-13 NMR spectral analysis 48 hours and 18 days following formation.

A short description of series [2]: Stability of CropStar formulation and thiodicarb in presence of sodium bisulfite, Example 1. The series is classed as physicochemical. The protocol:
Sodium bisulfite was added to CropStar® (150 g/L imidacloprid+450 g/L thiodicarb; Bayer CropScience) in various mole ratios to formaldehyde (0.5:1, 1:1, 2:1, and 5:1) with or without pH adjustment to pH 7. Efficacy of sodium bisulfite was compared to no safener (Sample Nos. 1 & 5), two comparative safeners (Safener 1 & Safener 2), and inoculum only (BIAGRO Liquido NG—liquid inoculant and BIAGRO 10 Plus—peat-based inoculant). Safener 1 was obtained from Novozymes and contains the following active ingredients: soybean oil (CAS #8001-22-7), hydrolysed starch syrups (CAS #8029-43-4), and yeast extract (CAS #8013-01-2). Safener 2 was provided by Biagro and contains the following active ingredients: yeast extract, K2HPO4, and milk powder.

Some results are limits rather than exact numbers.

For `CN(C)CS(=O)(=O)O` [N,N-dimethyl adduct (CAS 68507-34-6), 1-(dimethylamino)-methanesulfonic acid], in series [1], the “Conversion of N,N-dimethyl adduct back to formaldehyde bisulfite adduct” value was “approximately 3.5%” and the “Time for which adduct is stable / takes to reverse back to formaldehyde bisulfite adduct” value is on record as > 18 days. The “Conversion of N,N-dimethyl adduct back to formaldehyde bisulfite adduct” value in series [1] (listed as N,N-dimethylamine product) worked out at 3.5%.

For `O=S([O-])O.[Na+]` [sodium bisulfite], in series [2] (1:1 mole ratio of sodium bisulfite to formaldehyde in CropStar), the Degradation of thiodicarb entry is listed as “did not significantly degrade thiodicarb”. Also, in series [2] (sodium bisulfite added to CropStar), the “Physical stability of the CropStar formulation” value is on record as “without affecting the physical stability of the formulation”.

For the origin of these results see US20200100497A1, “SAFENERS AND FORMULATIONS CONTAINING SAFENERS, BIOCIDES AND INOCULANTS” (Bayer CropScience LP, priority 2017, published 2020).
